25 compounds from US8829014B2, “Thiazole and thiophene analogues, and their use in treating autoimmune diseases and cancers” (Board of Supervisors of Louisiana State University and …, priority 2006, dated 2014) can be followed below.

The subject of one test is carageenan-induced edema. In words: Carrageenan-induced rat paw edema test (anti-inflammatory activity). In kind it is in vivo, Sprague-Dawley rats. The settings on record: Rattus norvegicus, po, 3 h, rat paw edema, 50 mg/kg, reading 3 hours after carrageenan; [(Control−Test)/Control]×100%; read-out: % Protection P. An outline of the steps: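 Edema was raised by sub-plantar injection of 1% carrageenan into the right hind paw, 1 h after dosing 18 h-fasted male/female Sprague-Dawley rats (150-250 g) with 50 mg/kg p.o. in 0.1% CMC. Swelling was measured by displacement 3 h later and expressed as % protection against saline control.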

The next test concerns NF-κB. The test can be described thus: TNF-α-induced NF-κB-dependent luciferase expression in HEK cells. The settings on record: Homo sapiens, HEK293, 1 uM; luciferase in HEK/NF-κB cells, as described in Example 398; read-out: NFkB inhibition @ 1 uM. In kind it is cell-based.
The test system of another test is AP-1. The test can be described thus: PMA-induced AP-1 luciferase expression in HEK cells. The settings on record: AP1, 1 uM; luciferase in HEK/AP-1 cells, as described in Example 398. It is filed as cell-based.

As for `CC(=O)c1ccc(-n2c(-c3cc(-c4ccc(S(C)(=O)=O)cc4)c(N4CCOCC4)s3)nc3ccccc3c2=O)cc1` [Example 317, 2-[4-(4-Methanesulphonyl-phenyl)-5-morpholin-4-yl-thiophen-2-yl]-3-(4-acetyl-phenyl)-3H-quinazolin-4-one], the inhibition in vivo at 50 mg/kg in the test with carageenan-induced edema was determined as 73%. Moreover, the results for the inhibition at 1 µM with NF-κB and with AP-1 were 46% and 31%, respectively.
For `CC(=O)c1ccc(-n2c(-c3cc(-c4ccncc4)c(N4CCOCC4)s3)nc3ccccc3c2=O)cc1` [Example 319, 3-(4-acetyl-phenyl)-2-(5-morpholin-4-yl-4-pyridin-4-yl-thiophen-2-yl)-3Hquinazolin-4-one], the inhibition in vivo at 50 mg/kg in the test on carageenan-induced edema was determined as 81%. Besides, the results for the inhibition at 1 µM in the test with NF-κB and with AP-1 were 66% and 84%, respectively.
Take `Cc1c(OCC(F)(F)F)ccnc1-c1sc(Nc2ccccc2)nc1N` [Example 331, 5-[3-Methyl-4-(2,2,2-trifluoro-ethoxy)-pyridin-2-yl]-N2-phenyl-thiazole-2,4-diamine]: the inhibition in vivo at 50 mg/kg with carageenan-induced edema turned out to be 62.3%. Besides, the inhibition at 1 µM in the test with NF-κB is -10.6%; in the test on AP-1 it was 27.4%.
In the same order, the values of `COc1ccc(C(=O)c2sc(Nc3ccc(Cl)cc3)nc2N)cc1` [Example 332, [4-Amino-2-(4-chloro-phenylamino)-thiazol-5-yl]-(4-methoxy-phenyl)-methanone] are 36%, 0.13% and -32.2%.
For the compound `Nc1nc(Nc2ccc(Cl)cc2)sc1C(=O)c1cccnc1` [Example 338, (4-Amino-2-(4-chlorophenylamino)-thiazol-5-yl)-pyridin-3-yl-methanone], in the test with carageenan-induced edema, the inhibition in vivo at 50 mg/kg was 25.8%. Further, the inhibition at 1 µM with NF-κB was -84.1%; in the test with AP-1, -89.1%.
For `Nc1nc(Nc2ccc(Cl)cc2)sc1C(=O)c1ccccn1` [Example 340, [4-Amino-2-(4-chloro-phenylamino)-thiazol-5-yl]-pyridin-2-yl-methanone], in the test on carageenan-induced edema, the inhibition in vivo at 50 mg/kg turned out to be 34%. Besides, the inhibition at 1 µM with NF-κB was -18.2%; in the test with AP-1, 57.3%.
In the same order, the values of `COc1ccc(Nc2nc(N)c(C(=O)c3ccc(C)cc3)s2)cc1` [Example 344, ([4-Amino-2-(4-methoxy-phenylamino)-thiazol-5-yl]-p-tolyl-methanone)] are 79.8%, 49% and 70.3%.
On to `COc1ccc(Nc2nc(N)c(C(=O)c3ccc(Cl)cc3Cl)s2)cc1` [Example 346, ([4-Amino-2-(4-methoxy-phenylamino)-thiazol-5-yl]-(2,4-dichloro-phenyl)-methanone)], for which the inhibition in vivo at 50 mg/kg in the test with carageenan-induced edema came to 28.3%. Moreover, the inhibition at 1 µM in the test on NF-κB was -4.13%; with AP-1 it was 64.6%.
In the same order, the values of `COc1ccc(Nc2nc(N)c(C(=O)c3cccnc3)s2)cc1` [Example 349, ([4-Amino-2-(4-methoxy-phenylamino)-thiazol-5-yl]-pyridin-3-yl-methanone)] are 18.2%, -35.9% and 51.5%.
As to `COc1ccc(Nc2nc(N)c(C(=O)c3ccccn3)s2)cc1` [Example 351, ([4-Amino-2-(4-methoxy-phenylamino)-thiazol-5-yl]-pyridin-2-yl-methanone)], the inhibition in vivo at 50 mg/kg in the test with carageenan-induced edema is 27%. The results for the inhibition at 1 µM in the test with NF-κB and with AP-1 were -35.9% and 51.5%, respectively.
On to `COc1ccc(Nc2nc(N)c(-c3nccc(OCC(F)(F)F)c3C)s2)cc1` [Example 353, (N2-(4-Methoxy-phenyl)-5-[3-Methyl-4-(2,2,2-trifluoro-ethoxy)-pyridin-2-yl]-thiazole-2,4-diamine)], for which the inhibition in vivo at 50 mg/kg in the test with carageenan-induced edema amounted to 82.5%. Besides, the inhibition at 1 µM with NF-κB was 59.1%; in the test on AP-1, 62%.
Regarding `Cc1ccc(C(=O)c2sc(Nc3ccc(Cl)cc3)nc2NC(=O)Nc2ccc(F)cc2)cc1` [Example 356, 1-[2-(4-Chloro-phenylamino)-5-(4-methyl-benzoyl)-thiazol-4-yl]-3-(4-fluoro-phenyl)-urea], the inhibition in vivo at 50 mg/kg with carageenan-induced edema is 69.5%. Besides, the inhibition at 1 µM worked out at 54.6% in the test with NF-κB and 48.4% in the test on AP-1.
As to `Cc1ccc(C(=O)c2sc(N3CCN(C(=O)c4ccco4)CC3)nc2-c2ccco2)cc1` [Example 371, {2-[4-(Furan-2-carbonyl)-piperazin-1-yl]-4-furan-2-yl-thiazol-5-yl}-p-tolyl-methanone], in the test on carageenan-induced edema, the inhibition in vivo at 50 mg/kg was found to be 34%. The inhibition at 1 µM with NF-κB was 10.4%; with AP-1, 25.6%.
In the same order, the values of `O=C(c1ccc(Cl)cc1)c1sc(N2CCN(C(=O)c3ccco3)CC2)nc1-c1ccco1` [Example 373, (4-Chloro-phenyl)-{2-[4-(furan-2-carbonyl)-piperazin-1-yl]-4-furan-2-yl-thiazol-5-yl}-methanone] are 42%, -6.07% and 26.9%.
In the same order, the values of `O=C(c1ccc(Cl)cc1Cl)c1sc(N2CCN(C(=O)c3ccco3)CC2)nc1-c1ccco1` [Example 374, (2,4-Dichloro-phenyl)-{2-[4-(furan-2-carbonyl)-piperazin-1-yl]-4-furan-2-yl-thiazol-5-yl}-methanone] are 62.6%, 6.25% and 46.2%.
With `CS(=O)(=O)c1ccc(C(=O)c2sc(N3CCN(C(=O)c4ccco4)CC3)nc2-c2ccco2)cc1` [Example 375, {2-[4-(Furan-2-carbonyl)-piperazin-1-yl]-4-furan-2-yl-thiazol-5-yl}-(4-methanesulfonyl-phenyl)-methanone], the inhibition in vivo at 50 mg/kg with carageenan-induced edema was found to be 49%. Besides, the inhibition at 1 µM was -13.2% in the test on NF-κB and 22.1% with AP-1.
In the same order, the values of `O=C(c1cccnc1)c1sc(N2CCN(C(=O)c3ccco3)CC2)nc1-c1ccco1` [Example 376, {2-[4-(Furan-2-carbonyl)-piperazin-1-yl]-4-furan-2-yl-thiazol-5-yl}-pyridin-3-yl-methanone] are 33%, -14.1% and 45.9%.
For the compound `O=C(c1ccncc1)c1sc(N2CCN(C(=O)c3ccco3)CC2)nc1-c1ccco1` [Example 377, {2-[4-(Furan-2-carbonyl)-piperazin-1-yl]-4-furan-2-yl-thiazol-5-yl}-pyridin-4-yl-methanone], the inhibition in vivo at 50 mg/kg in the test on carageenan-induced edema came out at 32%. For the same compound, the inhibition at 1 µM was -7.88% with NF-κB and 4.84% in the test with AP-1.
In the same order, the values of `COc1c(C)cnc(-c2sc(N3CCN(C(=O)c4ccco4)CC3)nc2-c2ccco2)c1C` [Example 378, Furan-2-yl-{4-[4-furan-2-yl-5-(4-methoxy-3,5-dimethyl-pyridin-2-yl)-thiazol-2-yl]-piperazin-1-yl}-methanone] are 84.2%, 22.1% and 43.3%.
Consider `Cc1c(OCC(F)(F)F)ccnc1-c1sc(N2CCN(C(=O)c3ccco3)CC2)nc1-c1ccco1` [Example 379, Furan-2-yl-(4-{4-furan-2-yl-5-[3-methyl-4-(2,2,2-trifluoro-ethoxy)-pyridin-2-yl]-thiazol-2-yl}-piperazin-1-yl)-methanone], for which the inhibition in vivo at 50 mg/kg in the test on carageenan-induced edema was 62.4%. The values for the inhibition at 1 µM in the test on NF-κB and with AP-1 were 51.1% and 3.23%, respectively.
Turning to `O=C(c1ccc(Cl)cc1)c1sc(N2CCN(C(=O)c3ccco3)CC2)nc1-c1ccccc1` [Example 383, (4-Chloro-phenyl)-{2-[4-(furan-2-carbonyl)-piperazin-1-yl]-4-phenyl-thiazol-5-yl}-methanone], in the test on carageenan-induced edema, the inhibition in vivo at 50 mg/kg was 62%. The inhibition at 1 µM with NF-κB was -0.23%; in the test on AP-1, 13.3%.
Consider `O=C(c1ccc(Cl)cc1Cl)c1sc(N2CCN(C(=O)c3ccco3)CC2)nc1-c1ccccc1` [Example 384, (2,4-Dichloro-phenyl)-{2-[4-(furan-2-carbonyl)-piperazin-1-yl]-4-phenyl-thiazol-5-yl}-methanone], for which the inhibition in vivo at 50 mg/kg with carageenan-induced edema came out at 71.6%. The results for the inhibition at 1 µM in the test with NF-κB and with AP-1 were -1.4% and 42.5%, respectively.
Take `CS(=O)(=O)c1ccc(C(=O)c2sc(N3CCN(C(=O)c4ccco4)CC3)nc2-c2ccccc2)cc1` [Example 385, {2-[4-(Furan-2-carbonyl)-piperazin-1-yl]-4-phenyl-thiazol-5-yl}-(4-methanesulfonyl-phenyl)-methanone]: the inhibition in vivo at 50 mg/kg with carageenan-induced edema was 67%. Moreover, the figures for the inhibition at 1 µM with NF-κB and in the test with AP-1 were -15.1% and 6.44%, respectively.
In the case of `O=C(c1cccnc1)c1sc(N2CCN(C(=O)c3ccco3)CC2)nc1-c1ccccc1` [Example 386, {2-[4-(Furan-2-carbonyl)-piperazin-1-yl]-4-phenyl-thiazol-5-yl}-pyridin-3-yl-methanone], the inhibition in vivo at 50 mg/kg in the test with carageenan-induced edema is 23%. Moreover, the inhibition at 1 µM with NF-κB came to 52.8%; in the test on AP-1, 22.5%.
`COc1c(C)cnc(-c2sc(N3CCN(C(=O)c4ccco4)CC3)nc2-c2ccccc2)c1C` [Example 388, Furan-2-yl-{4-[5-(4-methoxy-3,5-dimethyl-pyridin-2-yl)-4-phenyl-thiazol-2-yl]-piperazin-1-yl}-methanone]: the inhibition in vivo at 50 mg/kg in the test on carageenan-induced edema worked out at 73.4%. In addition, the values for the inhibition at 1 µM in the test with NF-κB and in the test with AP-1 were 7.64% and 52.1%, respectively.
